As a reminder, the IC50 is the point on the concentration scale where inhibition reaches its midpoint.

We go through one molecule from PMC12526212, “Novel Isolongifolenone-Based Caprolactam Derivatives as Potential Anticancer Agents via the p53/mTOR/Autophagy Pathway” (Molecules, 2025).

Molecules are shown by their SMILES.

The test system of test [1] is A549. The test is described as follows: CCK-8 antiproliferative assay, A549. Particulars: Homo sapiens, A549; CCK-8, 48 h, mean ± SD of three experiments; read-out: IC50 A549. It is filed as cell-based. The method, then: After synthesis and characterization, the isolongifolenone bicyclocaprolactam derivatives were evaluated for their in vitro antiproliferative activity against three cancer cell lines (MCF-7, HepG2, A549) using a CCK-8 assay. […] In general, the antiproliferative activities of most of these compounds were similar, irrespective of whether electron-withdrawing or electron-donating substituents were introduced in the phenoxy ring.
Three cancer cell lines (human breast adenocarcinoma cells MCF-7, human lung adenocarcinoma epithelial cells A549, and human hepatocellular carcinoma cells HepG2) were obtained from the Cell Bank of the Chinese Academy of Sciences (Shanghai, China). LO2 human normal liver cells were also purchased from STEM RECELL (Beijing, China, STM-CL-5770). The anti-proliferation activity of compounds was tested on three cancer cell lines. The cytotoxicity of compounds as tested on normal cell line (human normal liver cells LO2). Cells were seeded at a density of 5000 cells per well in 96-well plates. Natural product piperlongumine was used as the positive control. All experiments were performed in triplicate. Three cancer cell lines were cultured in High DMEM medium or RIPM 1640 containing 10% FBS (Sijiqing, Hangzhou, China) and 1% antibiotics at 37 °C in a 5% CO2 incubator. The experimental cells were seeded in a 96-well plate at 5000 cells per well and incubated for 24 h. The old medium was replaced with experimental medium, and the cells were cultured for 48 h. Afterward, 10 µL of CCK-8 solution was added to each well, and the cells were incubated for 3 h. The absorbance at 450 nm was measured using a microplate reader.

Test [2] has as its system MCF-7 cells. The test is described as follows: Western blotting of autophagy, AMPK-mTOR and apoptosis proteins. The test is classed as cell-based, human. The protocol:
MCF-7 exponentially growing cells were plated in 6-well plates (2 × 10^5 cells/well). Then, derivatives E10 (0.5, 1.0 and 2.0 μM) were added to the well. After incubation for an additional 48 h, the cell culture medium was removed, and the cells were washed twice with ice-cold PBS. Subsequently, the cells were lysed to extract the total protein and centrifuged at 12,000 rpm for 5 min at 4 °C using lysis buffer (Beyotime, Shanghai, China, Cat. # P0013E). All protein concentrations were determined using a BCA kit. Equal amounts of protein (20–30 µg per lane) were loaded onto the gel. An equal amount of protein was analyzed using 12% SDS-PAGE gels and transferred to Hybond-P membrane containing polyvinylidene difluoride (PVDF). The membranes were then blocked with BSA for 2 h at room temperature and incubated with primary antibodies against p-mTOR (ImmunoWay Biotechnology, Beijing, China, YP1444, 1:5000), P62 (Proteintech Group, Inc., Wuhan, China, 60268-1-IG, 1:5000), LC3-I/II (Proteintech Group, Inc., Wuhan, China, 10253-2-AP, 1:5000) and p-AMPK, AMPK, Bcl-2, Bax, Cleaved-caspase 7 (ImmunoWay Biotechnology, Beijing, China, YP0251, 1:5000) overnight at 4 °C and with secondary antibodies (AP-conjugated goat anti-rabbit or anti-mouse, 1:10,000) for 2 h. Densitometry was performed in ImageJ 2 within the linear range. Targets were normalized to β-actin (or to the corresponding total protein for phospho-target), then expressed relative to vehicle (0.1% DMSO = 1.0). Where indicated, ratios such as LC3-II/LC3-I and Bax/Bcl-2 were calculated per lane before statistics.
A general note: A western blot detects proteins with antibodies after separation by electrophoresis.

The test system of test [3] is MCF-7 cells. As to the kind of experiment: Comet assay (DNA damage). The test is classed as cell-based, human. Particulars: 24 h. The protocol: DNA fragmentation is a hallmark of apoptosis, mitotic catastrophe, or both. DNA damage in MCF-7 cells was investigated by single-cell gel electrophoresis in an agarose gel matrix (the ‘comet assay’). In this assay, the length of the ‘comet tail’ observed after EB staining of the cell nuclei is an indicator of the extent of DNA damage.
MCF-7 cells were seeded in 24-well plastic plates at a density of 5 × 10^4 cells per well and treated with compound E10 for 24 h. The alkaline DNA comet assay was performed according to the instructions of the OxiSelectTM Comet Assay Kit (Cell Biolabs, San Diego, CA, USA, Cat. # STA-350) and analyzed using a Zeiss fluorescent microscope (Jena, Germany). The free software Casplab-1.2.3b2 (CAS PLab, Wroclaw, Poland) was used to calculate the percentage of tail DNA and Olive Tail Moment (OTM) as markers of DNA damage (Olive Tail Moment = Tail DNA (%) × Tail Moment Length).

Test [4] concerns MCF-7 multicellular tumor spheroids. As to the kind of experiment: 3D spheroid tumor model (calcein AM/PI). Particulars: E10 1, 5 and 10 μM, 4 days. It is filed as cell-based, human. An excerpt:
Three-dimensional (3D) cell culture provides an environment that allows cells to grow and interact with their surroundings in all spatial dimensions, closely mimicking the physiological conditions found in vivo [44]. […] To evaluate the long-term antitumor effects of E10 in a more physiologically relevant model, a 3D spheroid tumor model was established using MCF-7 breast cancer cells. Each spheroid was formed by approximately 2000 MCF-7 cells and cultured for 3 days to allow spheroid maturation. These spheroids were subsequently treated with varying concentrations of E10 (1, 5, and 10 μM) at 48-h intervals over a period of 4 days. For visualization, the multicellular tumor spheroids (MCTSs) were stained with calcein AM and propidium iodide (PI) in culture medium for 1.5 h. The live/dead cell distribution within the spheroids was then visualized using laser scanning confocal microscopy. […] This limited cell death is likely attributable to hypoxic and nutrient-deprived conditions resulting from excessive cell proliferation.
[…] MCF-7 cells were seeded into cell-repellent 96-well U-bottom plates (Sbio, Tokyo, Japan) at a density of 3000 cells per well and cultured for 72 h to promote spheroid formation. […] After treatment, spheroids were stained with 5 μM PI and 10 μM Calcein-AM, and observed under a fluorescence microscope (Olympus, Tokyo, Japan).

The subject of test [5] is MCF-7 cells. As to the kind of experiment: Cell cycle assay (PI, flow cytometry). It is filed as cell-based, human. Particulars: 0.5, 1.0, 2.0 µM, 24 h. The method, then: As a cell progresses into different cell cycle phases, its DNA content varies because of DNA synthesis (which is required to prepare additional chromosome copies prior to cell division). Consequently, a flow cytometric analysis of DNA content can provide information on the number of cells in different cell cycle phases.
For cell cycle analysis, MCF-7 cells were seeded at a density of 2 × 10^5 cells per well in 6-well plates. MCF-7 cells were treated with different concentrations of compound E10 for 24 h. After that, the cells were washed with PBS twice, collected by trypsin enzymic digestion and centrifugation, and the collected cells were subsequently fixed with 70% ice-cold ethanol overnight at 4 °C. The cells were stained with PI (50 μg/mL) the next day. The cell cycle distributions were measured through flow cytometry (BD), and the data were analyzed by Modfit 5.1 software.

On to `CC1(C)C2=CC(=O)N(C(=O)C=Cc3cccc(C(F)(F)F)c3)CC(C)(C)C23CCC1C3` (stereo not shown) [E10, 5,5,9,9-Tetramethyl-3-(3-(3-(trifluoromethyl)phenyl)acryloyl)-4,5,6,7,8,9-hexahydro-5a,8-methanobenzo[d]azepin-2(3H)-one], for which the IC50 in test [1] was 1390 ± 320 nM. For the same molecule, in test [2] (E10 0.5, 1.0, 2.0 μM), the AMPK phosphorylation levels result was “increased”, the mTOR phosphorylation levels result is “strongly decreased” and the p62 expression entry is “decrease”. The “LC3-I and LC3-II expression levels” value in test [2] (after E10 treatment) is on record as “up-regulated”. Further, in test [2] (compared with control), the Bax expression result is on record as “higher levels” and the Bcl-2 expression entry is “down-regulated”. In test [2] (dose-dependent), the “cleaved caspase-7 expression” value is “dramatically up-regulated” and the p53 expression result was “dramatically up-regulated”. The “ratio of LC3-II/LC3-I” value in test [2] (increasing concentrations of E10 (0.5, 1.0, 2.0 μM)) is listed as “increased gradually”. The “DNA damage, comet formation” value in test [3] is listed as “induced DNA fragmentation”. The “viability and structural integrity of MCF-7 MCTSs” value in test [4] is reported as “dose-dependent inhibitory effect”. Besides, in test [5], the “effect on cell cycle” value is “cell cycle arrest at the G0/G1 phase”.
